The subject of this experiment is P388 leukemia ip, CD2F1 mice, survival T/C. Briefly: NCI In Vivo Anticancer Drug Screen. Data for tumor model P388 Leukemia (intraperitoneal) in CD2F1 (CDF1) mice. As to conditions: endpoint: median survival time, higher = longer survival. Put shortly: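 Mice carrying the transplanted tumor received test compound or vehicle. Survival was recorded in each group, and the value is the treated-group measurement divided by that of the vehicle-treated control group.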

Where [1] appears, read: dose: 60.0 mg/kg/injection, schedule: Q01DX005 (ip), vehicle: saline.
Where [2] appears, read: dose: 120.0 mg/kg/injection, schedule: Q01DX005 (ip), vehicle: saline.
[3] abbreviates: dose: 240.0 mg/kg/injection, schedule: Q01DX005 (ip), vehicle: saline.
Setting [4] is: dose: 25.0 mg/kg/injection, schedule: Q01DX005 (ip), vehicle: Klucel (hydroxypropylcellulose) (HPC).
Where [5] appears, read: dose: 50.0 mg/kg/injection, schedule: Q01DX005 (ip), vehicle: Klucel (hydroxypropylcellulose) (HPC).
[6] abbreviates: dose: 100.0 mg/kg/injection, schedule: Q01DX005 (ip), vehicle: Klucel (hydroxypropylcellulose) (HPC).
Setting [7] is: dose: 50.0 mg/kg/injection, schedule: Q04DX003 (ip), vehicle: saline with Tween-80.
The mark [8] stands for this setting: dose: 100.0 mg/kg/injection, schedule: Q04DX003 (ip), vehicle: saline with Tween-80.
Setting [9] is: dose: 200.0 mg/kg/injection, schedule: Q04DX003 (ip), vehicle: saline with Tween-80.
[10] abbreviates: dose: 400.0 mg/kg/injection, schedule: Q04DX003 (ip), vehicle: saline with Tween-80.
[11] abbreviates: dose: 100.0 mg/kg/injection, schedule: Q01DX009 (ip), vehicle: saline with Tween-80.
[12] abbreviates: dose: 200.0 mg/kg/injection, schedule: Q01DX009 (ip), vehicle: saline with Tween-80.
The mark [13] stands for this setting: dose: 100.0 mg/kg/injection, schedule: Q01DX001 (ip), vehicle: saline with Tween-80.
Where [14] appears, read: dose: 200.0 mg/kg/injection, schedule: Q01DX001 (ip), vehicle: saline with Tween-80.

This passage reports T/C results from PubChem BioAssay AID330 (DTP/NCI, 2004).

Several values for one entry are separate records, joined by “and”; a condition that tells them apart may be missing. Equal values may be shown once. Toxic doses and inconclusive results are not listed.

Take `O=CC(CO)C(C=O)n1ncc2ccccc21` (stereo not given): the T/C (dose: 4.0 mg/kg/injection, schedule: Q01DX009 (ip), vehicle: saline with Tween-80) is 120 % of control; the T/C (dose: 8.0 mg/kg/injection, schedule: Q01DX001 (ip), vehicle: suspension in saline) is 108 % of control; the T/C (dose: 16.0 mg/kg/injection, schedule: Q01DX001 (ip), vehicle: saline) was 107 % of control; the T/C (dose: 16.0 mg/kg/injection, schedule: Q01DX001 (ip), vehicle: suspension in saline) is 98 % of control; the T/C (dose: 16.0 mg/kg/injection, schedule: Q01DX009 (ip), vehicle: saline with Tween-80) is 119 % of control; the T/C (dose: 32.0 mg/kg/injection, schedule: Q01DX001 (ip), vehicle: saline) is 107 % of control and 116 % of control. For the same molecule, the T/C by setting is: (dose: 32.0 mg/kg/injection, schedule: Q01DX001 (ip), vehicle: suspension in saline) 94 % of control; (dose: 64.0 mg/kg/injection, schedule: Q01DX001 (ip), vehicle: saline) 172 % of control; (dose: 64.0 mg/kg/injection, schedule: Q01DX001 (ip), vehicle: suspension in saline) 108 % of control.
For the molecule `CC1=CP(=O)(c2ccccc2)CC1` (stereo not given) (tested in a mixture with another compound), the T/C reads like this: under setting [1], 93 % of control; under setting [2], 99 % of control; under setting [3], 102 % of control.
In the case of `c1ccc2c(c1)[nH]c1c2nc2ccccn21`, the T/C is 105 % of control and 107 % of control under setting [4]; 105 % of control and 108 % of control and 113 % of control under setting [5]; 124 % of control under setting [6].
Regarding `Nc1cc2nnc(-c3ccccc3)c(-c3ccccc3)n2n1`, the T/C is, setting by setting: (dose: 25.0 mg/kg/injection, schedule: Q04DX002 (ip), vehicle: saline with Tween-80) 91 % of control; (dose: 50.0 mg/kg/injection, schedule: Q04DX002 (ip), vehicle: saline with Tween-80) 86 % of control.
On to `CCOc1c(N=Nc2ccc(C)cc2)c(C)nn1C(=S)S`, for which the T/C is, setting by setting: (dose: 60.0 mg/kg/injection, schedule: Q01DX005 (ip), vehicle: Klucel (hydroxypropylcellulose) (HPC)) 96 % of control; (dose: 120.0 mg/kg/injection, schedule: Q01DX005 (ip), vehicle: Klucel (hydroxypropylcellulose) (HPC)) 105 % of control; (dose: 240.0 mg/kg/injection, schedule: Q01DX005 (ip), vehicle: Klucel (hydroxypropylcellulose) (HPC)) 97 % of control.
`COC(=O)c1nc2[nH]n(-c3ccccc3)c(=O)c2c2c1CCCCCCCCCC2`: the T/C is 102 % of control under setting [1], 96 % of control under setting [2] and 96 % of control under setting [3].
For the molecule `COP(=O)(O)OC.[V]`, the T/C was 96 % of control under setting [7]; 103 % of control and 108 % of control under setting [8]; 99 % of control under setting [9].
As to `CC(C)(C)N1CC(C(=O)c2ccccc2)C1c1ccccc1` (stereo not given), the T/C by setting is: under setting [7], 100 % of control; under setting [8], 98 % of control; under setting [9], 97 % of control; under setting [10], 97 % of control.
`ClC1=C(Cl)C2(Cl)C3C(Cl)C(Cl)CC3C1(Cl)C2(Cl)Cl` (stereo not given): the T/C is, setting by setting: (dose: 3.12 mg/kg/injection, schedule: Q01DX009 (ip), vehicle: saline + Tween-80 + alcohol) 100 % of control and 101 % of control; (dose: 6.25 mg/kg/injection, schedule: Q01DX009 (ip), vehicle: saline + Tween-80 + alcohol) 107 % of control and 112 % of control; (dose: 12.5 mg/kg/injection, schedule: Q01DX009 (ip), vehicle: saline + Tween-80 + alcohol) 114 % of control and 87 % of control; (dose: 25.0 mg/kg/injection, schedule: Q01DX009 (ip), vehicle: other) 110 % of control and 89 % of control; (dose: 25.0 mg/kg/injection, schedule: Q01DX009 (ip), vehicle: saline + Tween-80 + alcohol) 103 % of control and 96 % of control; (dose: 50.0 mg/kg/injection, schedule: Q01DX009 (ip), vehicle: other) 110 % of control and 86 % of control and 98 % of control. Besides, the T/C runs as follows: (dose: 100.0 mg/kg/injection, schedule: Q01DX009 (ip), vehicle: other) 108 % of control and 93 % of control; (dose: 200.0 mg/kg/injection, schedule: Q01DX009 (ip), vehicle: other) 90 % of control.
Take `O=C(OCC1OC(n2cc(C(F)(F)F)c(=O)[nH]c2=O)CC1OC(=O)c1ccc([N+](=O)[O-])cc1)c1ccc([N+](=O)[O-])cc1` (stereo not given): the T/C reads like this: (dose: 12.0 mg/kg/injection, schedule: Q01DX005 (ip), vehicle: Klucel (hydroxypropylcellulose) (HPC)) 100 % of control; under setting [4], 108 % of control; under setting [5], 105 % of control and 108 % of control; under setting [6], 107 % of control.
As for `NCCN(Cc1ccccc1)C1CC1`, the T/C runs as follows: (dose: 50.0 mg/kg/injection, schedule: Q01DX009 (ip), vehicle: saline) 98 % of control; (dose: 100.0 mg/kg/injection, schedule: Q01DX009 (ip), vehicle: saline) 91 % of control.
For `O=C(CCCc1ccc(N(CCCl)CCCl)cc1)Nc1ncccn1`, the T/C (dose: 5.3 mg/kg/injection, schedule: Q01DX009 (ip), vehicle: Klucel (hydroxypropylcellulose) (HPC)) was 95 % of control; the T/C (dose: 8.0 mg/kg/injection, schedule: Q01DX009 (ip), vehicle: Klucel (hydroxypropylcellulose) (HPC)) was 159 % of control; the T/C (dose: 12.0 mg/kg/injection, schedule: Q01DX009 (ip), vehicle: Klucel (hydroxypropylcellulose) (HPC)) was 150 % of control; the T/C (dose: 18.0 mg/kg/injection, schedule: Q01DX009 (ip), vehicle: Klucel (hydroxypropylcellulose) (HPC)) was 159 % of control.
Take `CC(C)(C)CC(C)(C)c1ccc(OCc2ccc(Cl)c(Cl)c2)cc1`: the T/C by setting is: (dose: 50.0 mg/kg/injection, schedule: Q01DX009 (ip), vehicle: saline with Tween-80) 100 % of control; under setting [11], 100 % of control; under setting [12], 91 % of control.
For the molecule `CCOC(=O)c1cc[nH]c1CC(=O)OC`, the T/C is, setting by setting: under setting [13], 99 % of control; under setting [14], 96 % of control; (dose: 400.0 mg/kg/injection, schedule: Q01DX001 (ip), vehicle: saline with Tween-80) 100 % of control.
For the molecule `CCOC(=O)c1c(N)sc2c1CCCC2`, the T/C reads like this: under setting [7], 101 % of control; (dose: 100.0 mg/kg/injection, schedule: Q01DX001 (ip), vehicle: saline sonified) 100 % of control; under setting [8], 108 % of control; (dose: 200.0 mg/kg/injection, schedule: Q01DX001 (ip), vehicle: saline sonified) 100 % of control; under setting [9], 105 % of control; (dose: 400.0 mg/kg/injection, schedule: Q01DX001 (ip), vehicle: saline sonified) 100 % of control. For the same molecule, the T/C under setting [10] was 101 % of control.
With `OCC(O)c1c(-c2ccc(Cl)cc2)c(-c2ccccc2)c2n1CCC2` (stereo not given), the T/C reads like this: under setting [5], 97 % of control; under setting [6], 100 % of control; (dose: 200.0 mg/kg/injection, schedule: Q01DX005 (ip), vehicle: Klucel (hydroxypropylcellulose) (HPC)) 90 % of control.
As to `Cn1c2c([N+](=O)[O-])cccc2c(=O)c2c(O)cc3c(c21)C=CC(C)(C)O3`, the T/C is 108 % of control under setting [13] and 110 % of control under setting [14].
`CN(C)Cc1c(/C=C/C2=[N+](C)c3ccccc3C2(C)C)[nH]c2ccccc12`: the T/C was 110 % of control (dose: 50.0 mg/kg/injection, schedule: Q01DX009 (ip), vehicle: Klucel (hydroxypropylcellulose) (HPC)); 107 % of control (dose: 100.0 mg/kg/injection, schedule: Q01DX009 (ip), vehicle: Klucel (hydroxypropylcellulose) (HPC)); 110 % of control (dose: 200.0 mg/kg/injection, schedule: Q01DX009 (ip), vehicle: Klucel (hydroxypropylcellulose) (HPC)).
As to `O=C(NO)c1ccccc1O`, the T/C runs as follows: under setting [11], 110 % of control; under setting [8], 86 % of control; under setting [12], 100 % of control; under setting [9], 90 % of control; (dose: 400.0 mg/kg/injection, schedule: Q01DX009 (ip), vehicle: saline with Tween-80) 110 % of control; under setting [10], 100 % of control.
